This assay has as its system 5-methoxy-N,N-dimethyltryptamine-induced head twitching (serotoninergic syndrome). Kind of assay: head twitches induced by 5-methoxy-N,N-dimethyltryptamine in mice. The format is in vivo. From the text:
The fourth in vivo study evaluated activity of the compounds of the invention on serotonin agonist-induced head twitching (serotoninergic syndrome). The compound 5-methoxy-N,N-dimethyl tryptamine is a serotonin agonist which induces head twitching in mice. The activity of this tryptamine compound is increased by antidepressant drugs. This study evaluated the ability of the compounds of the present invention to influence the effect of the tryptamine-induced head twitching (E. Friedman, et al., Eur. J. Pharmacol., 89, 69-76, 1983).
The compounds to be tested were administered to mice at the dose of 3 mg/kg p.o. either acutely or chronically twice a day continually for 2 weeks. The increased head twitching caused by the tryptamine compound (2 mg/kg i.p.) was observed 1, 24 and 72 hours after the last administration of the test compound.

With `c1ccc(C(Cc2c[nH]cn2)c2ccccc2)cc1` [Compound 1, 4(5)-(2,2-diphenylethyl)-imidazole], the “Head Twitches/5 Minutes, percent compared to the vehicle treated group” value was determined as 171% (acute, 3 mg/kg p.o., 1 h after last treatment, tryptamine compound 2 mg/kg i.p.); 278% (chronic, 3 mg/kg p.o. twice a day 2 weeks, 1 h after last treatment); 210% (chronic, 3 mg/kg p.o. twice a day 2 weeks, 24 h after last treatment); 211% (chronic, 3 mg/kg p.o. twice a day 2 weeks, 72 h after last treatment).

For the origin of these results see patent publication US4738979A, “α2 -blocking derivatives of imidazole” (G. D. Searle & Co., priority 1985, dated 1988).
